PubChem BioAssay AID256 (DTP/NCI, 2004)
Inconclusive results and toxic doses are left out.

System: CD2F1 mice, L1210 leukemia ip, survival T/C
Experiment: NCI In Vivo Anticancer Drug Screen. Data for tumor model L1210 Leukemia (intraperitoneal) in CD2F1 (CDF1) mice
Details: higher = longer survival
Method in brief: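 Vehicle-treated tumor-bearing mice served as controls (C) for compound-treated mice (T). Reported figure is T divided by C.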

[1] = endpoint: mean survival time, dose: 100.0 mg/kg/injection, schedule: Q01DX009 (ip), vehicle: saline with Tween-80
[2] = endpoint: mean survival time, dose: 100.0 mg/kg/injection, schedule: Q04DX003 (ip), vehicle: saline with Tween-80
[3] = endpoint: mean survival time, dose: 200.0 mg/kg/injection, schedule: Q01DX009 (ip), vehicle: saline with Tween-80
[4] = endpoint: mean survival time, dose: 200.0 mg/kg/injection, schedule: Q04DX003 (ip), vehicle: saline with Tween-80
[5] = endpoint: mean survival time, dose: 400.0 mg/kg/injection, schedule: Q01DX009 (ip), vehicle: saline with Tween-80
[6] = endpoint: mean survival time, dose: 400.0 mg/kg/injection, schedule: Q04DX003 (ip), vehicle: saline with Tween-80
[7] = endpoint: mean survival time, dose: 100.0 mg/kg/injection, schedule: Q04DX002 (ip), vehicle: saline with Tween-80
[8] = endpoint: mean survival time, dose: 200.0 mg/kg/injection, schedule: Q04DX002 (ip), vehicle: saline with Tween-80
[9] = endpoint: mean survival time, dose: 100.0 mg/kg/injection, schedule: Q01DX001 (ip), vehicle: Klucel (hydroxypropylcellulose) (HPC)
[10] = endpoint: mean survival time, dose: 200.0 mg/kg/injection, schedule: Q01DX001 (ip), vehicle: Klucel (hydroxypropylcellulose) (HPC)
[11] = endpoint: mean survival time, dose: 6.25 mg/kg/injection, schedule: Q04DX003 (ip), vehicle: saline
[12] = endpoint: mean survival time, dose: 12.5 mg/kg/injection, schedule: Q04DX003 (ip), vehicle: saline with Tween-80
[13] = endpoint: mean survival time, dose: 25.0 mg/kg/injection, schedule: Q04DX003 (ip), vehicle: saline
[14] = endpoint: mean survival time, dose: 12.5 mg/kg/injection, schedule: Q01DX009 (ip), vehicle: saline
[15] = endpoint: mean survival time, dose: 12.5 mg/kg/injection, schedule: Q04DX003 (ip), vehicle: saline
[16] = endpoint: mean survival time, dose: 25.0 mg/kg/injection, schedule: Q01DX009 (ip), vehicle: saline

COC(=O)c1nc2ccccc2nc1C(=O)OC
T/C [1]: 103 % of control
T/C [2]: 100 % of control
T/C [3]: 103 % of control
T/C [4]: 94 % of control
T/C [5]: 102 % of control
T/C [6]: 96 % of control

O=C1OC(=O)c2ccccc21
T/C (endpoint: mean survival time, dose: 25.0 mg/kg/injection, schedule: Q01DX009 (ip), vehicle: Klucel (hydroxypropylcellulose) (HPC)): 91 % of control
T/C (endpoint: mean survival time, dose: 50.0 mg/kg/injection, schedule: Q01DX009 (ip), vehicle: Klucel (hydroxypropylcellulose) (HPC)): 95 % of control
T/C (endpoint: mean survival time, dose: 100.0 mg/kg/injection, schedule: Q01DX009 (ip), vehicle: Klucel (hydroxypropylcellulose) (HPC)): 95 % of control

S=C1CCCCN1
T/C (endpoint: median survival time, dose: 25.0 mg/kg/injection, schedule: Q01DX009 (ip), vehicle: distilled water + alcohol): 96 % of control
T/C (endpoint: median survival time, dose: 50.0 mg/kg/injection, schedule: Q01DX009 (ip), vehicle: distilled water + alcohol): 94 % of control
T/C (endpoint: median survival time, dose: 100.0 mg/kg/injection, schedule: Q01DX009 (ip), vehicle: distilled water + alcohol): 106 % of control
T/C (endpoint: median survival time, dose: 200.0 mg/kg/injection, schedule: Q01DX009 (ip), vehicle: distilled water + alcohol): 112 % of control

CNC(=O)NNc1ccccc1
T/C [2]: 102 % of control
T/C [4]: 98 % of control
T/C [6]: 104 % of control

CC(O)CN1CCOCC1 (stereo not given)
T/C [1]: 101 % of control
T/C [3]: 105 % of control
T/C [5]: 100 % of control

CC(=O)NC1C=CC(=O)O1 (stereo not given)
T/C (endpoint: mean survival time, dose: 18.75 mg/kg/injection, schedule: Q01DX001 (ip), vehicle: saline): 121 % of control
T/C (endpoint: mean survival time, dose: 37.5 mg/kg/injection, schedule: Q01DX001 (ip), vehicle: saline): 119 % of control

COc1cccc(CN2CCCNCC2)c1
T/C (endpoint: mean survival time, dose: 25.0 mg/kg/injection, schedule: Q01DX005 (ip), vehicle: water): 96 % of control
T/C (endpoint: mean survival time, dose: 50.0 mg/kg/injection, schedule: Q01DX005 (ip), vehicle: water): 96 % of control
T/C (endpoint: mean survival time, dose: 100.0 mg/kg/injection, schedule: Q01DX005 (ip), vehicle: water): 94 % of control

Nc1nc(N)nc(-c2ccccc2)n1
T/C [2]: 96 % of control
T/C [4]: 98 % of control
T/C [6]: 105 % of control

c1ccc(-c2nc3ccc4ccccc4c3nc2-c2ccccc2)cc1
T/C [1]: 94 % of control
T/C [2]: 98 % of control
T/C [3]: 96 % of control
T/C [4]: 92 % of control
T/C [5]: 96 % of control
T/C [6]: 92 % of control

O=C(/C=C/C(=O)c1ccccc1)c1ccccc1
T/C (endpoint: mean survival time, dose: 6.25 mg/kg/injection, schedule: Q01DX001 (ip), vehicle: saline with Tween-80): 92 % of control
T/C (endpoint: mean survival time, dose: 12.5 mg/kg/injection, schedule: Q01DX001 (ip), vehicle: saline with Tween-80): 107 % of control
T/C (endpoint: mean survival time, dose: 25.0 mg/kg/injection, schedule: Q01DX001 (ip), vehicle: saline with Tween-80): 96 % of control
T/C (endpoint: mean survival time, dose: 50.0 mg/kg/injection, schedule: Q01DX001 (ip), vehicle: saline with Tween-80): 89 % of control
T/C (endpoint: mean survival time, dose: 100.0 mg/kg/injection, schedule: Q01DX001 (ip), vehicle: saline with Tween-80): 94 % of control

CCCCNC(=S)N/N=C/c1ccccn1
T/C [7]: 98 % of control
T/C [8]: 109 % of control

CCOC(=O)C(C)C1(O)CCCCC1 (stereo not given)
T/C [2]: 101 % of control
T/C [4]: 101 % of control
T/C [6]: 92 % of control

COc1ccc(CCNCCc2ccc(OC)c(OC)c2)cc1OC
T/C (endpoint: mean survival time, dose: 12.5 mg/kg/injection, schedule: Q01DX009 (ip), vehicle: water): 95 % of control
T/C (endpoint: mean survival time, dose: 25.0 mg/kg/injection, schedule: Q01DX009 (ip), vehicle: water): 100 % of control
T/C (endpoint: mean survival time, dose: 50.0 mg/kg/injection, schedule: Q01DX009 (ip), vehicle: water): 102 % of control
T/C (endpoint: mean survival time, dose: 100.0 mg/kg/injection, schedule: Q01DX009 (ip), vehicle: water): 104 % of control

COc1cc(OC)c(NC(=O)Oc2c(Cl)cccc2Cl)cc1Cl
T/C (endpoint: mean survival time, dose: 50.0 mg/kg/injection, schedule: Q01DX009 (ip), vehicle: saline with Tween-80): 94 % of control
T/C [1]: 97 % of control

O=C(Nc1ccccc1)Nc1ccc2c(c1)oc1ccccc12
T/C (endpoint: mean survival time, dose: 50.0 mg/kg/injection, schedule: Q01DX001 (ip), vehicle: Klucel (hydroxypropylcellulose) (HPC)): 108 % of control
T/C [9]: 97 % of control
T/C [7]: 95 % of control
T/C [10]: 94 % of control
T/C [8]: 91 % of control
T/C (endpoint: mean survival time, dose: 400.0 mg/kg/injection, schedule: Q04DX002 (ip), vehicle: saline with Tween-80): 98 % of control

O=C(O)CCC(NC(=O)c1ccccc1)C(=O)O (stereo not given)
T/C [9]: 96 % of control
T/C [10]: 96 % of control
T/C (endpoint: mean survival time, dose: 400.0 mg/kg/injection, schedule: Q01DX001 (ip), vehicle: Klucel (hydroxypropylcellulose) (HPC)): 100 % of control

O=C(COc1ccccc1)N/N=C/c1ccccc1O
T/C [1]: 92 % of control

C#CCN(C)/N=N/c1nc[nH]c1C(N)=O
T/C (endpoint: mean survival time, dose: 12.5 mg/kg/injection, schedule: Q01DX009 (ip), vehicle: Klucel (hydroxypropylcellulose) (HPC)): 123 % of control
T/C (endpoint: mean survival time, dose: 200.0 mg/kg/injection, schedule: Q01DX009 (ip), vehicle: Klucel (hydroxypropylcellulose) (HPC)): 98 % of control

CCC(C)(C[NH-])C[NH-].[Cl][Pt+2][Cl]
T/C (endpoint: mean survival time, dose: 1.56 mg/kg/injection, schedule: Q04DX003 (ip), vehicle: saline): 114 % of control
T/C (endpoint: mean survival time, dose: 3.12 mg/kg/injection, schedule: Q04DX003 (ip), vehicle: saline): 118 % of control
T/C [11]: 124 % of control
T/C [12]: 285 % of control
T/C [13]: 312 % of control

O=S(=O)(/C=C(/Br)c1ccccc1)c1ccccc1
T/C (endpoint: mean survival time, dose: 100.0 mg/kg/injection, schedule: Q01DX009 (ip), vehicle: saline): 96 % of control
T/C (endpoint: mean survival time, dose: 100.0 mg/kg/injection, schedule: Q04DX003 (ip), vehicle: saline): 100 % of control
T/C (endpoint: mean survival time, dose: 200.0 mg/kg/injection, schedule: Q01DX009 (ip), vehicle: saline): 91 % of control
T/C (endpoint: mean survival time, dose: 200.0 mg/kg/injection, schedule: Q04DX003 (ip), vehicle: saline): 100 % of control
T/C (endpoint: mean survival time, dose: 400.0 mg/kg/injection, schedule: Q01DX009 (ip), vehicle: saline): 90 % of control
T/C (endpoint: mean survival time, dose: 400.0 mg/kg/injection, schedule: Q04DX003 (ip), vehicle: saline): 100 % of control

CC#CC(=O)O
T/C (endpoint: mean survival time, dose: 100.0 mg/kg/injection, schedule: Q04DX002 (ip), vehicle: saline): 98 % of control

Cc1cc(-c2ccccc2)cc(=O)[nH]1
T/C (endpoint: mean survival time, dose: 100.0 mg/kg/injection, schedule: Q01DX001 (ip), vehicle: other): 92 % of control
T/C (endpoint: mean survival time, dose: 200.0 mg/kg/injection, schedule: Q01DX001 (ip), vehicle: other): 92 % of control
T/C (endpoint: mean survival time, dose: 400.0 mg/kg/injection, schedule: Q01DX001 (ip), vehicle: other): 91 % of control

c1ccc2c(CC[n+]3cccc(C4OCCO4)c3)c[nH]c2c1
T/C [14]: 100 % of control
T/C [15]: 92 % of control
T/C [16]: 105 % of control
T/C [13]: 96 % of control
T/C (endpoint: mean survival time, dose: 50.0 mg/kg/injection, schedule: Q01DX009 (ip), vehicle: saline): 100 % of control
T/C (endpoint: mean survival time, dose: 50.0 mg/kg/injection, schedule: Q04DX003 (ip), vehicle: saline): 89 % of control

CC(O)c1ccc[n+](CCc2cn(C)c3ccccc23)c1 (stereo not given)
T/C (endpoint: mean survival time, dose: 6.25 mg/kg/injection, schedule: Q01DX009 (ip), vehicle: saline): 97 % of control
T/C [11]: 94 % of control
T/C [14]: 96 % of control
T/C [15]: 92 % of control
T/C [16]: 105 % of control
T/C [13]: 92 % of control

CN(C)c1nnc(N(C)C)s1
T/C [2]: 100 % of control
T/C [4]: 98 % of control
T/C [6]: 98 % of control

Clc1c(Br)nc(Br)nc1C(Cl)(Cl)Cl
T/C (endpoint: mean survival time, dose: 6.25 mg/kg/injection, schedule: Q04DX003 (ip), vehicle: saline with Tween-80): 98 % of control
T/C [12]: 98 % of control
T/C (endpoint: mean survival time, dose: 25.0 mg/kg/injection, schedule: Q04DX003 (ip), vehicle: saline with Tween-80): 98 % of control

Nc1ccc([N+](=O)[O-])cn1
T/C (endpoint: mean survival time, dose: 75.0 mg/kg/injection, schedule: Q01DX009 (ip), vehicle: saline with Tween-80): 94 % of control
T/C [2]: 107 % of control
T/C (endpoint: mean survival time, dose: 150.0 mg/kg/injection, schedule: Q01DX009 (ip), vehicle: saline with Tween-80): 87 % of control
T/C [4]: 103 % of control
T/C (endpoint: mean survival time, dose: 300.0 mg/kg/injection, schedule: Q01DX009 (ip), vehicle: saline with Tween-80): 93 % of control
T/C [6]: 96 % of control
